Assay results published in ChEMBL document CHEMBL1201862, “PubChem BioAssay data set” (2004).
Activity calls are given as the source filed them.

How the values were obtained:
[1] = target: T1, Protein skinhead-1 (Caenorhabditis elegans, UniProt P34707); assay type: functional
T1 sequence (P34707 whole entry): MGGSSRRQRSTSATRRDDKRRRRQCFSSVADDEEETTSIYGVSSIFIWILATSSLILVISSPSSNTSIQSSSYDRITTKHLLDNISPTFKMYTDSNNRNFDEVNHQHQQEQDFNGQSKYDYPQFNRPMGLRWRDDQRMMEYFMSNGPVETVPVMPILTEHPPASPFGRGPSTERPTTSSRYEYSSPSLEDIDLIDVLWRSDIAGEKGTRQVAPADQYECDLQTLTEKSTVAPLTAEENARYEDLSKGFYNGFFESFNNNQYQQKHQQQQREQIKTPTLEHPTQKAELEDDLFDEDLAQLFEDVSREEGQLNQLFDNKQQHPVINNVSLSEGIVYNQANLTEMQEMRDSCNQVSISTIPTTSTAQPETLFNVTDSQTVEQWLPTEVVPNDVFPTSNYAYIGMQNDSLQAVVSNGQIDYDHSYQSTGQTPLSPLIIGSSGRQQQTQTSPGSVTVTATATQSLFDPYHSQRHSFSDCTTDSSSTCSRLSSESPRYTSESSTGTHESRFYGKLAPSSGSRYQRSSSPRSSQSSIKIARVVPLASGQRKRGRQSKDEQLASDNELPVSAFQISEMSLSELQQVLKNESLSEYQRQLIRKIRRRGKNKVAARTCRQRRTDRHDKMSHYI

[2] = target: Cytochrome P450 2C9 (Homo sapiens, UniProt P11712)
Sequence of Cytochrome P450 2C9 (P11712 whole entry): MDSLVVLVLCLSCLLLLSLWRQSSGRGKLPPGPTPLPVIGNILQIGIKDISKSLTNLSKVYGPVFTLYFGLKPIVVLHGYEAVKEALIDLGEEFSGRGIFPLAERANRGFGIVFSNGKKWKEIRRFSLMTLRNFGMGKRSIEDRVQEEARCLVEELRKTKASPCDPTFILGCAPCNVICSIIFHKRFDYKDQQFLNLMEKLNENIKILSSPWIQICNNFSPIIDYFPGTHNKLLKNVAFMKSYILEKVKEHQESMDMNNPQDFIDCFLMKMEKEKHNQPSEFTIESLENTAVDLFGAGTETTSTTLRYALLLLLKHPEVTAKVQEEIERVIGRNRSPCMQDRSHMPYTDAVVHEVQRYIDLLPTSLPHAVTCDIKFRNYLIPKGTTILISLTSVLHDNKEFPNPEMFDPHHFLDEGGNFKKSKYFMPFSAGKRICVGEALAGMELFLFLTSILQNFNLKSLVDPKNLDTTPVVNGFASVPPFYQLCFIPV

[3] = target: T2, Cytochrome P450 1A2 (Homo sapiens, UniProt P05177);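 further: PubChem cytochrome P450 panel assay, CYP1A2 panel member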
T2 sequence (P05177 whole entry): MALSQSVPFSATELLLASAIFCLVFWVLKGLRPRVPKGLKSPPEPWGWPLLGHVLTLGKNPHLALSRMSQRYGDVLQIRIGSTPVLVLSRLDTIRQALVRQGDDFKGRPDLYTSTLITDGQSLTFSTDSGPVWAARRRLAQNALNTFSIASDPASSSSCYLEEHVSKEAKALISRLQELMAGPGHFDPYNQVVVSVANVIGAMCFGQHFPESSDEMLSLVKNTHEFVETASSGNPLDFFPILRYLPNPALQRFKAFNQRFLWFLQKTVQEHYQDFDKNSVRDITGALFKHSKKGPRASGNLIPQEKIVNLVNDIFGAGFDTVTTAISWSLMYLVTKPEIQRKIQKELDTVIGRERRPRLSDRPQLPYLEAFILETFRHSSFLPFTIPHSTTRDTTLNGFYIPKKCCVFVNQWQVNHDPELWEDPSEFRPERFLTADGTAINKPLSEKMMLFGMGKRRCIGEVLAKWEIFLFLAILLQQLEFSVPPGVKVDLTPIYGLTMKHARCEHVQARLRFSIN

[4] = target: Cytochrome P450 3A4 (Homo sapiens, UniProt P08684);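 further: CYP3A4 tested as one member of a cytochrome P450 panel screen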
Sequence of Cytochrome P450 3A4 (P08684 whole entry): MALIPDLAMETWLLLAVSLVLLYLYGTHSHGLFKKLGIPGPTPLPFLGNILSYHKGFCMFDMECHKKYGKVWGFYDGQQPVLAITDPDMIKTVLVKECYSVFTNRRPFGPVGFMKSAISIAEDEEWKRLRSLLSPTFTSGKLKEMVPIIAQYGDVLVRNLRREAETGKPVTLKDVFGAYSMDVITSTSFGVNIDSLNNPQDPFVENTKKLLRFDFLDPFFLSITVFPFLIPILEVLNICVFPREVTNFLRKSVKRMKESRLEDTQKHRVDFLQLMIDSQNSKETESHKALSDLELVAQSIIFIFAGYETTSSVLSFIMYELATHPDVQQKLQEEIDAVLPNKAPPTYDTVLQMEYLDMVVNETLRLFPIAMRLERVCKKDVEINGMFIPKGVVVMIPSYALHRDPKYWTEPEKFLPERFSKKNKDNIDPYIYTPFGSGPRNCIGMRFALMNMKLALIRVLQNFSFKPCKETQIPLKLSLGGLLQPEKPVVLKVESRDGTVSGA

[5] = HepG2 cell cytotoxicity, dose response, cytotoxicity control for Shn3 inhibitor project, CellTiter-Glo, cherry-picked (AID 624134); assay type: functional, cell-based
[6] = control 3'UTR Renilla luciferase suppression, dose response, counter-screen for Shn3 inhibitor project, cell-based, Clone20-Shn3RL, cherry-picked (AID 624133); assay type: functional
[7] = test system: Streptococcus; test: Group A Streptococcus viability loss, dose response, counter-screen for streptokinase expression inhibitor project, luminescence, BacTiterGlo (AID 1915); assay type: functional, organism-based;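 further: potency for reduction of bacterial viability or growth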
[8] = Shn3 3'UTR reporter inhibitors, dose response, cell-based, Clone20 osteoblasts, firefly luciferase, cherry-picked (AID 624132); assay type: functional;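 further: firefly luciferase luminescence from reporter carrying the Shn3 3'UTR in osteoblasts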
[9] = inhibitors of intracellular T. cruzi replication, confirmation, NIH3T3 host cells, beta-gal luminescence (AID 2044); assay type: functional, cell-based;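 further: intracellular parasites grown in NIH/3T3 mouse fibroblasts as host cells; luminescent beta-galactosidase reporter signal from transgenic T. cruzi replicating inside host cells; inhibitors lower the luminescence signal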
[10] = cytotoxicity toward NIH3T3 fibroblasts, dose response, counter-screen, cell-based, ATP luminescence, mouse fibroblasts (AID 2010); assay type: functional;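 further: cells exposed to compound for about 90 hours before reading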
[11] = test system: Streptococcus sp. 'group A'; test: growth inhibition of control SK(-) GAS strain, dose response, counter-screen for streptokinase expression inhibitor project, luminescence, kanamycin, BacTiterGlo, confirmation (AID 1900); assay type: functional, organism-based
[12] = target: T3, Streptokinase A (Streptococcus pyogenes serotype M1, UniProt P10520); test: S. pyogenes streptokinase expression inhibitors, potency, dose response, plasminogen activation absorbance, OD405 (AID 1914); assay type: functional, Streptococcus pyogenes M1 GAS;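 further: secreted streptokinase activity via plasminogen activation per viability signal from cell pellet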
T3 sequence (P10520 whole entry): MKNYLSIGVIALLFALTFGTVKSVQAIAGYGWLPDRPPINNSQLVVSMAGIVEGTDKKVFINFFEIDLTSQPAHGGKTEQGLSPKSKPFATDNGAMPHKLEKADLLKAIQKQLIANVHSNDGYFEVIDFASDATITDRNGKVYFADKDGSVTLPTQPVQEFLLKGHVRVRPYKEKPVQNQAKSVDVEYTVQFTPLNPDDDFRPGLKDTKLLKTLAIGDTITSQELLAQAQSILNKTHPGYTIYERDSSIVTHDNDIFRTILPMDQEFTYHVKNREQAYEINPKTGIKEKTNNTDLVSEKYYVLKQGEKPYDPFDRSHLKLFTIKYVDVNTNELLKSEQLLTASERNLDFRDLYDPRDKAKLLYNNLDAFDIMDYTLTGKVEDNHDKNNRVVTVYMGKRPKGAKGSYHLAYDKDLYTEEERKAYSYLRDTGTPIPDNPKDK

[13] = target: Genome polyprotein (dengue virus type 2, UniProt P29990); test: Dengue-2 NS5 methyltransferase inhibitors, primary screen, biochemical, confirmation dose response (AID 588689); assay type: functional
Sequence of Genome polyprotein (P29990 2492-3391 limits assumed): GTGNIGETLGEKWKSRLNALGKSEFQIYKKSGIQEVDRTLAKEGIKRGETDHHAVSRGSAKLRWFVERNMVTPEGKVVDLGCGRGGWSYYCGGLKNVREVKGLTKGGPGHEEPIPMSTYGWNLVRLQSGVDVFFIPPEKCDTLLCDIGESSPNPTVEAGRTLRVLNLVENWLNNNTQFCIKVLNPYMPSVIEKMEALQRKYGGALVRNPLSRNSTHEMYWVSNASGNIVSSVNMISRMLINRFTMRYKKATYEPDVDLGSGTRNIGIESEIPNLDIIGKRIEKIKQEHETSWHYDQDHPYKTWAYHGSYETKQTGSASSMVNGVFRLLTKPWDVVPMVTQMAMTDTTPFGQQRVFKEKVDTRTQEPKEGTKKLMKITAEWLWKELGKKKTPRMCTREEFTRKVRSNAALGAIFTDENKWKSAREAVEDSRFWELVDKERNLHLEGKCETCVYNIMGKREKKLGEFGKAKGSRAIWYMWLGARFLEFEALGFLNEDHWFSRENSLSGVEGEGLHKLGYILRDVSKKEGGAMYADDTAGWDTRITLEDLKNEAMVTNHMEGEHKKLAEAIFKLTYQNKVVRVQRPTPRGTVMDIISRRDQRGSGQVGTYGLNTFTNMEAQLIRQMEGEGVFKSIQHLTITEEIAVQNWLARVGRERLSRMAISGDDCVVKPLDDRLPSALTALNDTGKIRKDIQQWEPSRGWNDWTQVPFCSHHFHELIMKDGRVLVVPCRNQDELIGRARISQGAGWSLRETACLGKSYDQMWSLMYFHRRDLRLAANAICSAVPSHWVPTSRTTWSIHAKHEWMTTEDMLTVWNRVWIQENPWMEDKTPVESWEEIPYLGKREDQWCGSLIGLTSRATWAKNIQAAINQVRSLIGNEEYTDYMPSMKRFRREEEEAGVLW

[14] = target: FAD-linked sulfhydryl oxidase ALR (Homo sapiens, UniProt P55789); test: inhibitors of human ALR sulfhydryl oxidase, dose response, biochemical, H2O2 detection, luminescence, cherry-pick (AID 493248)
Sequence of FAD-linked sulfhydryl oxidase ALR (P55789 whole entry): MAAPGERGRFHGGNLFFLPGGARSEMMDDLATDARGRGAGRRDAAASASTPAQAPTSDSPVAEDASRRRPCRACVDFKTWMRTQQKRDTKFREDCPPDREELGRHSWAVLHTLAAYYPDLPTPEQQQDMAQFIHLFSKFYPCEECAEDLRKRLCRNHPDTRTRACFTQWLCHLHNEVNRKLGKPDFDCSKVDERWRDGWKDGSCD

[15] = cells; assay type: functional
[16] = Luminescence Cell-Based Dose Confirmation HTS to Identify Inhibitors of Platelet Dense Granule Release. [Related pubchem assays: 1663 (Primary HTS), 1678 (Summary of Project)]; assay type: functional
[17] = Luminescence Cell-Based Dose Response HTS to Identify Inhibitors of 5'UTR Stem-Loop Driven Prion Protein mRNA Translation in H4 Neuroglioblastoma Cells. [Related pubchem assays: 1827 (Project Summary), 1813 (Primary HTS)]; assay type: functional
[18] = inhibitors of SNCA 5'UTR-driven reporter translation, confirmation, H4 neuroglioma cells, luminescence (AID 1988); assay type: functional, cell-based
[19] = target: Luciferin 4-monooxygenase (Photinus pyralis, UniProt P08659); test: firefly luciferase enzyme inhibitors, dose response, biochemical, luminescence (AID 1891)
Sequence of Luciferin 4-monooxygenase (P08659 whole entry): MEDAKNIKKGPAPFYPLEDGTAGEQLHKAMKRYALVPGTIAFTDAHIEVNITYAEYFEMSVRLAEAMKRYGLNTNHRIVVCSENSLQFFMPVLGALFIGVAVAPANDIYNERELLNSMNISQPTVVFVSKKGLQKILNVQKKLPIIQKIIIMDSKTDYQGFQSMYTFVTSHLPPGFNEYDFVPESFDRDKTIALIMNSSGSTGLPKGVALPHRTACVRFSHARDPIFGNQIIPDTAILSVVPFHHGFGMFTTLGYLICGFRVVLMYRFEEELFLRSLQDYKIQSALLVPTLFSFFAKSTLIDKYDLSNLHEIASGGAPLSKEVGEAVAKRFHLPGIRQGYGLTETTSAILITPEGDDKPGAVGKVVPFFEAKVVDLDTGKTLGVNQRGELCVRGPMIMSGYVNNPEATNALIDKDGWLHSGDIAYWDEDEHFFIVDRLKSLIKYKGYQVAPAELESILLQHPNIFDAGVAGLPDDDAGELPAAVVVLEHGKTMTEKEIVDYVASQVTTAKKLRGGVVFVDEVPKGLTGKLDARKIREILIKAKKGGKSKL

[20] = growth suppression of beta-catenin-knockout colon cells, dose response, cell-based, HCT116, human colon tumor (AID 1045); assay type: functional;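 further: HCT116 colon tumor cells with beta catenin knocked out; cells exposed to compound for 60 hours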
[21] = HEp-2 cell cytotoxicity, dose response, cytotoxicity control for RSV inhibitor project, HTS (AID 2410); assay type: functional; settings: human respiratory syncytial virus

## Clc1ccc(-c2nnc(-c3ccccc3)c(N3CCSCC3)n2)cc1
[1]
  IC50: > 100 µM (inactive)

## CCN(C(=O)CN1C(=O)S/C(=C\c2cccc(Cl)c2)C1=O)C1CCS(=O)(=O)C1 (centres undefined)
[1]
  IC50: > 100 µM (inactive)

## CCCN(CCC)C[C@@H]1CCCCN1CCNC(=O)N1c2ccccc2C(=O)Nc2cccnc21
[2]
  AC50: inconclusive
[3]
  AC50: 25.1 µM (inconclusive)
[4]
  AC50: 15.8 µM (inconclusive)

## Cc1cc2nnc(SCCCCN3C(=O)c4ccccc4C3=O)n2c2ccccc12
[2]
  AC50: inconclusive

## Clc1ncc(CSc2ccccc2)s1
[1]
  IC50: 84.8 µM (inactive)

## CCC(=O)NC(c1ccc(OC)c(OC)c1)c1cc(Cl)c2cccnc2c1O (centres undefined)
[5]
  AC50: 5.6 µM (active)
[6]
  AC50: 2.11 µM (active)
[7]
  EC50: > 150 µM (not active)
[8]
  AC50: < 0.26 µM (active)
[9]
  EC50: 0.96 µM (active)
[10]
  EC50: 4.73 µM (active)
[11]
  EC50: 4.86 µM (active)
[12]
  EC50: > 150 µM (not active)

## C=CCc1cc(C=C2C(=O)NC(=O)NC2=O)cc(OC)c1OCc1ccc(C(=O)O)cc1
[13]
  IC50: 29.1 µM (active)

## O=C(O)c1ccc(Cl)c(S(=O)(=O)Nc2ccc(S(=O)(=O)Nc3cccc(Cl)c3)cc2)c1
[13]
  IC50: 65.7 µM (active)

## Cc1ccc(C(C)C)cc1NC(=O)Nc1ccc([N+](=O)[O-])cc1
[5]
  AC50: 22.4 µM (active)
[6]
  AC50: 6.53 µM (active)
[7]
  EC50: 17.5 µM (active)
[8]
  AC50: 7.19 µM (active)
[11]
  EC50: 6.64 µM (active)
[12]
  EC50: 10.8 µM (active)

## C=CCN1C(=O)NC(=O)/C(=C\c2ccc(-c3ccccc3[N+](=O)[O-])o2)C1=O
[13]
  IC50: 25.2 µM (active)
[14]
  AC50: 0.507 µM (active)

## CCCCCn1c(=N)n(CC(O)COc2ccccc2OC)c2ccccc21 (centres undefined)
[5]
  AC50: 24.2 µM (active)
[6]
  AC50: 23.4 µM (active)
[8]
  AC50: 2.12 µM (active)

## CN1C(c2ccccc2)CC(=NO)CC1c1ccccc1 (centres undefined)
[15]
  IC50: 16.6 µM (active)

## COc1ccc(/C=C(/C#N)C(=O)NC2CCCCC2)cc1Br
[2]
  AC50: inconclusive
[4]
  AC50: 25.1 µM (inconclusive)

## O=C1NC(=O)N(c2ccccc2)C(=O)/C1=C\c1ccccc1[N+](=O)[O-]
[13]
  IC50: 38.5 µM (active)

## COc1cccc(C2=NN(C(C)=O)C(c3cccs3)C2)c1 (centres undefined)
[1]
  IC50: > 100 µM (inactive)

## CCCCOc1ccc(Br)cc1CSC(=N)N
[5]
  AC50: 23.6 µM (active)
[6]
  AC50: 2.58 µM (active)
[8]
  AC50: 1.37 µM (active)

## O=C(COc1ncnc2c(Cl)cc(Cl)cc12)N1CCCCC1
[1]
  IC50: > 100 µM (inactive)

## O=[N+]([O-])c1c(O)nc(O)nc1/C=C/c1ccc(Cl)cc1Cl
[13]
  IC50: 49.1 µM (active)

## CC(C)NS(=O)(=O)c1ccc(CCC(=O)Nc2cc(Cl)ccc2Oc2ccccc2)cc1
[5]
  AC50: 57.7 µM (active)
[6]
  AC50: 22.5 µM (active)
[8]
  AC50: 7.65 µM (active)

## O=C(/C=C/Nc1ccc(Br)cc1F)c1ccco1
[16]
  EC50: 8.72 µM (active)
[17]
  EC50: 3.64 µM (active)
[18]
  EC50: 4.41 µM (active)
[19]
  EC50: 0.482 µM (active)
[1]
  IC50: 15.4 µM (active)

## O=C(Nc1ccccc1N1CCOCC1)c1ccccc1[N+](=O)[O-]
[2]
  AC50: inconclusive
[3]
  AC50: 12.6 µM (inconclusive)

## Nc1nc(S)nc2c1C1(CCCCC1)Cc1ccccc1-2
[5]
  AC50: > 70 µM (inactive)
[6]
  AC50: 25 µM (active)

## COc1ccc(Oc2ncc3nc(-c4cn(C)c5ccccc45)c(=O)n(CCC#N)c3n2)cc1
[2]
  AC50: inconclusive
[3]
  AC50: 2 µM (inconclusive)

## C#CCOc1ccc(/C=C2/C(=O)ON=C2C)cc1Br
[13]
  IC50: 80.7 µM (active)

## O=[N+]([O-])c1cc(N=Nc2ccc3ccccc3c2)ccc1O
[16]
  EC50: 2.24 µM (active)
[19]
  EC50: 0.173 µM (active)
[15]
  IC50: > 50 µM (active)

## Cc1ccc(C)c(NC(=O)c2cc3ccccc3o2)c1
[1]
  IC50: > 100 µM (inactive)

## CCOC(=O)COc1ccc2c(c1)c(C(C)=O)c(C)n2Cc1ccccc1
[15]
  IC50: 7.41 µM (active)

## O=C(NC1CS(=O)(=O)CC1NCc1ccccc1)c1ccccc1 (centres undefined)
[1]
  IC50: > 100 µM (inactive)

## O=C(NC1CCCC1)C1CC(c2ccc(F)cc2)=NO1 (centres undefined)
[2]
  AC50: inconclusive
[4]
  AC50: 25.1 µM (inconclusive)

## CN(C)c1ncc2nc(-c3cc(F)cc(F)c3)c(=O)n(CCC#N)c2n1
[2]
  AC50: inconclusive
[4]
  AC50: 39.8 µM (inconclusive)

## COc1cc2ccccc2cc1C(=O)Nc1ccncc1
[1]
  IC50: 52.3 µM (inactive)

## CCC[C@H]1C[C@H](C(=O)N[C@H]([C@@H]2O[C@H](SC)[C@@H](O)[C@H](O)[C@@H]2O)[C@H](C)O)N(C)C1
[2]
  AC50: inconclusive

## c1ccc2c(c1)NC(c1ccncc1)n1c-2nc2ccccc21 (centres undefined)
[1]
  IC50: > 100 µM (inactive)

## COc1ccc(C(=O)CCN2CCCCCC2)cc1
[20]
  EC50: 124 µM (active)
[15]
  IC50: 22.2 µM (active)

## Fc1ccc(-c2nnn(Cc3nc4ccccc4s3)n2)cc1
[1]
  IC50: 80.1 µM (inactive)

## Cc1c(-c2nc(-c3cccnc3)no2)cccc1[N+](=O)[O-]
[1]
  IC50: > 100 µM (inactive)

## Cc1ccccc1OCC(=O)OCC(=O)c1ccc[nH]1
[15]
  IC50: 20.3 µM (active)

## O=C(COC(=O)[C@@H]1CCCN1C(=O)c1cccs1)NCCc1ccccc1
[1]
  IC50: > 100 µM (inactive)

## O=Nc1c(O)ccc2cc(S(=O)(=O)O)ccc12
[13]
  IC50: 45.7 µM (active)

## Clc1cccc(-c2nc3ccc(Br)cn3c2Cc2ccsc2)c1
[1]
  IC50: 54.8 µM (inactive)

## O=C(O)CN1C(=O)C=CC1=O
[13]
  IC50: > 100 µM (active)

## CN(C)C(=O)c1cccc(-c2cnc3c(NC=O)cc(-c4ccc(N(C)C)cc4)cn23)c1
[1]
  IC50: > 100 µM (inactive)

## CC(C)c1ccc(NC(=O)Nc2nc(C(N)C3CCCCC3)cs2)cc1 (centres undefined)
[5]
  AC50: 13.8 µM (active)
[6]
  AC50: 4.41 µM (active)
[8]
  AC50: 7.29 µM (active)

## Cc1ccc(-c2nc3ccc(C(=O)O)cc3nc2-c2ccc(C)cc2)cc1
[13]
  IC50: 55.3 µM (active)
[21]
  CC50: 19.4 µM (active)

## O=C(O)Cc1nn(Cc2ccc(Br)cc2F)c(=O)c2ccccc12 [PONALRESTAT]
[2]
  AC50: inconclusive
[3]
  AC50: 31.6 µM (inconclusive)

## COc1ccn(C)c(=O)c1C#N [RICININE]
[2]
  AC50: inconclusive
